Measurements published in patent publication US5393765A, “Pharmaceutical compositions with constant erosion volume for zero order controlled release” (Hoffmann-La Roche Inc., priority 1993, dated 1995).
In brackets after ≈: the same amount, converted by molar mass. Where a name gives a salt, the structure may show the parent alone. Read-outs that look alike come from different tables or passages of the source.

Tests used:
[1] = Solubility of the exemplary drugs in water at 25° C.; type: physicochemical
Method: Solubility of the exemplary drugs in water at 25° C. is as follows: […]

[2] = Drug release from the erodible matrix, USP dissolution test (Basket or Paddle Method); type: physicochemical; details: in the given dissolution medium; FIGS. 2-7 and 9-15; FIG. 8 (chlorpheniramine maleate composition with the polymer, water, 37° C., Basket Method, 100 rpm)
Method: The evaluation of drug release from the erodible matrix was performed using the USP dissolution test procedure with either the Basket or Paddle Method at the speed as specified. […] Briefly, in both methods, one tablet is placed in the appropriate apparatus described below containing the specified amount of dissolution medium and the stirring element is started. The amount of drug in solution is determined by the UV spectrophotometric method as is known in the art. The assembly used in the Basket Method consists of the following: a covered vessel made of glass with nominal capacity 1000 mL; a motor; a metallic drive shaft; and a cylindrical basket. The vessel containing 900 mL of the specified dissolution medium (i.e., water, 1% nonionic surfactant Emulphor ON-870 in phosphate buffer, pH 7.5 or 3% sodium lauryl sulfate, pH 9.0) is partially immersed in a suitable water bath and equilibrated at 37°±0.5° C. A fitted cover may be used to retard evaporation. The shaft is positioned so that its axis is not more than 2 mm at any point from the vertical axis of the vessel and rotates smoothly and without significant wobble. A speed-regulating device is used that allows the shaft rotation speed to be selected and maintained at the specified rate. The recommended basket speed is 100 rpm. […] The drug analysis was determined by UV spectrophotometry.

[3] = in water at 25° C., read-out: Solubility

SMILES | solubility [1, 3] [µg/mL] | other results
Cc1nnc2n1-c1sc(C#CCn3c(=O)c4ccccc4c4ccccc43)cc1C(c1ccccc1Cl)=NC2 [5-[3-[4-(2-Chlorophenyl)-9-methyl-6H-thieno[3,2-f][1,2,4]triazolo[4,3-a][1,4]diazepin-2-yl]-2-propynyl]phenanthrydin-6(5H)-one] |  | solubility ([1]; water): 0.01 µg/mL (≈ 0.0183 µM)
COc1ccc([C@@H]2Sc3c(ccc4ccccc34)N(CCN(C)C)C(=O)[C@@H]2OC(C)=O)cc1 (single isomer, unassigned) [(+)-cis-3-(Acetyloxy)-2,3-dihydro-2-(4-methoxyphenyl)-5-[2-(dimethylamino)ethyl]naphtho[1,2-b]-1,4-thiazepin-4(5H)-one] | 80000 (≈ 172000 µM) | 
CN(C)CCC(c1ccc(Cl)cc1)c1ccccn1 (stereo not drawn) [chlorpheniramine maleate] |  | Release profile (zero order) [2]: does not produce a zero-order release profile
CCC(CC)(CC(=O)Nc1cccc(/C=C/c2nc(C3CCC3)cs2)c1)C(=O)O [(E)-4-[[3-[2-(4-Cyclobutyl-2-thiazolyl)ethenyl]phenyl]amino]-2,2-diethyl-4-oxobutanoic acid] | < 2 | 
O=C(CCCCCCCCc1cccnc1)N1CCC(C=C(c2ccccc2)c2ccccc2)CC1 [4-(2,2-Diphenylethenyl)-1-[1-oxo-9-(3-pyridinyl)nonyl]piperidine] | 0.182 (≈ 0.379 µM) | 
CNC1=Nc2ccc(Cl)cc2C(c2ccc[nH]2)=NC1 [7-Chloro-N-methyl-5-(1H-pyrrol-2-yl)-3H-1,4-benzodiazepin-2-amine] | 1.5 (≈ 5.5 µM) | 
